Measured values taken from PubChem BioAssay (NCI).
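96-well plates; 48 h exposure; 5 concentrations. Endpoints by linear interpolation between flanking doses. Not reached: highest tested concentration assigned. GI50 is the concentration that inhibits growth by half. The concentration for full growth arrest is given as TGI.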

Key:
Experiment in all cases: inhibition of tumour cell growth, NCI panel, 48 h; in the data active = GI50 below about 0.43 µM; inactive = the rest
A498 renal = tested on: A498 renal
BT-549 breast = tested on: BT-549 breast
DU-145 prostate = tested on: DU-145 prostate
MALME-3M melanoma = tested on: MALME-3M melanoma
MDA-MB-231 breast = tested on: MDA-MB-231 breast
MDA-MB-435 = tested on: MDA-MB-435
NCI-H460 lung = tested on: NCI-H460 lung
PC-3 prostate = tested on: PC-3 prostate
RXF 393 renal = tested on: RXF 393 renal
SK-MEL-28 melanoma = tested on: SK-MEL-28 melanoma

C[C@@H](O)[C@H](NC(=O)N[C@@H](CC(N)=O)c1nc([C@@H](N)CO)no1)C(=O)O
inactive: GI50 (A498 renal) > 100 µM | GI50 (BT-549 breast) > 100 µM | GI50 (DU-145 prostate) > 100 µM | GI50 (MALME-3M melanoma) > 100 µM | GI50 (MDA-MB-231 breast) > 100 µM | GI50 (MDA-MB-435) > 100 µM | GI50 (NCI-H460 lung) > 100 µM | GI50 (PC-3 prostate) > 100 µM | GI50 (RXF 393 renal) > 100 µM | GI50 (SK-MEL-28 melanoma) > 100 µM
> 100 µM: TGI (A498 renal) | TGI (BT-549 breast) | TGI (DU-145 prostate) | TGI (MALME-3M melanoma) | TGI (MDA-MB-231 breast) | TGI (MDA-MB-435) | TGI (NCI-H460 lung) | TGI (PC-3 prostate) | TGI (RXF 393 renal) | TGI (SK-MEL-28 melanoma)

CCN(Cc1ccccc1)c1ccc(CO)c(Cl)c1
inactive: GI50 (BT-549 breast) 14.1 µM | GI50 (DU-145 prostate) 22.5 µM | GI50 (MALME-3M melanoma) 28.6 µM | GI50 (MDA-MB-231 breast) 21.2 µM | GI50 (MDA-MB-435) 21.4 µM | GI50 (PC-3 prostate) 18.2 µM | GI50 (RXF 393 renal) 6.01 µM | GI50 (SK-MEL-28 melanoma) 29.2 µM
> 53.6 µM: TGI (PC-3 prostate)
> 59.4 µM: TGI (DU-145 prostate)
44.6 µM: TGI (BT-549 breast)
13.9 µM: TGI (NCI-H460 lung)
0.169 µM: TGI (A498 renal)
77.8 µM: TGI (MDA-MB-435)
> 49.7 µM: TGI (RXF 393 renal)
active: GI50 (A498 renal) 0.042 µM | GI50 (NCI-H460 lung) 0.327 µM
> 82.6 µM: TGI (MALME-3M melanoma)
> 100 µM: TGI (MDA-MB-231 breast) | TGI (SK-MEL-28 melanoma)

COc1ccc(-c2cc(-c3cccn3C)c(C#N)c(=O)[nH]2)cc1OC
> 100 µM: TGI (A498 renal) | TGI (BT-549 breast) | TGI (DU-145 prostate) | TGI (MALME-3M melanoma) | TGI (MDA-MB-231 breast) | TGI (MDA-MB-435) | TGI (NCI-H460 lung) | TGI (PC-3 prostate) | TGI (RXF 393 renal) | TGI (SK-MEL-28 melanoma)
inactive: GI50 (A498 renal) 56.6 µM | GI50 (BT-549 breast) > 100 µM | GI50 (DU-145 prostate) > 100 µM | GI50 (MALME-3M melanoma) > 100 µM | GI50 (MDA-MB-231 breast) > 100 µM | GI50 (MDA-MB-435) > 100 µM | GI50 (NCI-H460 lung) > 100 µM | GI50 (PC-3 prostate) > 100 µM | GI50 (RXF 393 renal) > 100 µM | GI50 (SK-MEL-28 melanoma) > 100 µM

CCOC(=O)NC1C2CC(=O)OC(O2)C1OC(C)=O (stereo not drawn)
inactive: GI50 (BT-549 breast) > 100 µM | GI50 (DU-145 prostate) > 100 µM | GI50 (MDA-MB-231 breast) > 100 µM | GI50 (MDA-MB-435) > 100 µM | GI50 (PC-3 prostate) > 100 µM
> 100 µM: TGI (A498 renal) | TGI (BT-549 breast) | TGI (DU-145 prostate) | TGI (MALME-3M melanoma) | TGI (MDA-MB-231 breast) | TGI (MDA-MB-435) | TGI (NCI-H460 lung) | TGI (PC-3 prostate) | TGI (RXF 393 renal) | TGI (SK-MEL-28 melanoma)

C=C1C(=O)O[C@H]2[C@H]1CC/C(COC(=O)C(=O)c1cn(C)c3ccc(Cl)cc13)=C\CC[C@@]1(C)O[C@@H]21
3.86 µM: TGI (A498 renal)
3.72 µM: TGI (SK-MEL-28 melanoma)
inactive: GI50 (A498 renal) 2.17 µM | GI50 (DU-145 prostate) 1.69 µM | GI50 (MALME-3M melanoma) 1.74 µM | GI50 (MDA-MB-231 breast) 1.03 µM | GI50 (MDA-MB-435) 1.27 µM | GI50 (NCI-H460 lung) 2.28 µM | GI50 (PC-3 prostate) 1.41 µM | GI50 (RXF 393 renal) 1.06 µM | GI50 (SK-MEL-28 melanoma) 1.49 µM
6.75 µM: TGI (NCI-H460 lung)
4.28 µM: TGI (MALME-3M melanoma)
2.33 µM: TGI (RXF 393 renal)
3.13 µM: TGI (MDA-MB-435)
active: GI50 (BT-549 breast) 0.234 µM
3.63 µM: TGI (DU-145 prostate)
0.618 µM: TGI (BT-549 breast)
4.3 µM: TGI (MDA-MB-231 breast)
3.32 µM: TGI (PC-3 prostate)

O=C(O)c1ccc(Oc2nccc(-c3c(-c4ccc(F)cc4)ncn3C3CCNCC3)n2)cc1
inactive: GI50 (A498 renal) > 25 µM | GI50 (BT-549 breast) > 25 µM | GI50 (DU-145 prostate) > 25 µM | GI50 (MALME-3M melanoma) > 25 µM | GI50 (MDA-MB-231 breast) > 25 µM | GI50 (MDA-MB-435) > 25 µM | GI50 (NCI-H460 lung) > 25 µM | GI50 (PC-3 prostate) > 25 µM | GI50 (RXF 393 renal) > 25 µM | GI50 (SK-MEL-28 melanoma) > 25 µM
> 25 µM: TGI (A498 renal) | TGI (BT-549 breast) | TGI (DU-145 prostate) | TGI (MALME-3M melanoma) | TGI (MDA-MB-231 breast) | TGI (MDA-MB-435) | TGI (NCI-H460 lung) | TGI (PC-3 prostate) | TGI (RXF 393 renal) | TGI (SK-MEL-28 melanoma)

CC(=C/C=C/C=C(C)\C=C\C=C(\C)C(=O)O)/C=C/C=C(/C)C(=O)O
> 100 µM: TGI (A498 renal) | TGI (BT-549 breast) | TGI (DU-145 prostate) | TGI (MALME-3M melanoma) | TGI (MDA-MB-231 breast) | TGI (MDA-MB-435) | TGI (NCI-H460 lung) | TGI (PC-3 prostate) | TGI (RXF 393 renal) | TGI (SK-MEL-28 melanoma)

O=c1cc(N2CCN(CCCCCOc3cc(O)c4c(=O)cc(-c5ccccc5)oc4c3)CC2)c2ccccc2o1
inactive: GI50 (A498 renal) > 100 µM | GI50 (BT-549 breast) 57.9 µM | GI50 (DU-145 prostate) 89 µM | GI50 (MALME-3M melanoma) 39.2 µM | GI50 (MDA-MB-231 breast) 13.1 µM | GI50 (MDA-MB-435) 47.2 µM | GI50 (NCI-H460 lung) > 100 µM | GI50 (PC-3 prostate) 43.1 µM | GI50 (RXF 393 renal) > 100 µM | GI50 (SK-MEL-28 melanoma) 61.8 µM
> 100 µM: TGI (A498 renal) | TGI (BT-549 breast) | TGI (DU-145 prostate) | TGI (MALME-3M melanoma) | TGI (MDA-MB-231 breast) | TGI (MDA-MB-435) | TGI (NCI-H460 lung) | TGI (PC-3 prostate) | TGI (RXF 393 renal) | TGI (SK-MEL-28 melanoma)

COc1cc2c(cc1OC)-c1ccc3cc4c(cc3c1N(CCCn1ccnc1)C2)OCO4
16.8 µM: TGI (MDA-MB-435)
11.3 µM: TGI (NCI-H460 lung)
17.9 µM: TGI (BT-549 breast)
inactive: GI50 (A498 renal) 7.66 µM | GI50 (BT-549 breast) 3.78 µM | GI50 (DU-145 prostate) 3.21 µM | GI50 (MALME-3M melanoma) 2.68 µM | GI50 (MDA-MB-231 breast) 3.34 µM | GI50 (MDA-MB-435) 4.35 µM | GI50 (NCI-H460 lung) 0.527 µM | GI50 (PC-3 prostate) 4.18 µM | GI50 (RXF 393 renal) 3.43 µM | GI50 (SK-MEL-28 melanoma) 3.74 µM
10.7 µM: TGI (MALME-3M melanoma)
36.7 µM: TGI (PC-3 prostate)
34.5 µM: TGI (DU-145 prostate)
18.8 µM: TGI (MDA-MB-231 breast)
27.1 µM: TGI (A498 renal)
16.3 µM: TGI (RXF 393 renal)
17.7 µM: TGI (SK-MEL-28 melanoma)

O=C1O/C(=C\c2ccccc2)N(c2ccccc2)C1=O
> 100 µM: TGI (A498 renal) | TGI (BT-549 breast) | TGI (DU-145 prostate) | TGI (MDA-MB-231 breast) | TGI (MDA-MB-435) | TGI (NCI-H460 lung) | TGI (PC-3 prostate) | TGI (RXF 393 renal) | TGI (SK-MEL-28 melanoma)

C=C1C(=O)O[C@H]2[C@H]1CC/C(COC(=O)c1cc3ccccc3o1)=C\CC[C@@]1(C)O[C@@H]21
4.51 µM: TGI (NCI-H460 lung)
26 µM: TGI (A498 renal)
3.55 µM: TGI (MDA-MB-231 breast)
2.9 µM: TGI (MDA-MB-435)
3.59 µM: TGI (SK-MEL-28 melanoma)
2.87 µM: TGI (RXF 393 renal)
3.27 µM: TGI (MALME-3M melanoma)
3.72 µM: TGI (PC-3 prostate)
2.45 µM: TGI (DU-145 prostate)
inactive: GI50 (A498 renal) 12.9 µM | GI50 (BT-549 breast) 1.48 µM | GI50 (DU-145 prostate) 1.18 µM | GI50 (MALME-3M melanoma) 1.66 µM | GI50 (MDA-MB-231 breast) 1.64 µM | GI50 (MDA-MB-435) 1.43 µM | GI50 (NCI-H460 lung) 2 µM | GI50 (PC-3 prostate) 1.76 µM | GI50 (RXF 393 renal) 1.43 µM | GI50 (SK-MEL-28 melanoma) 1.75 µM
3.29 µM: TGI (BT-549 breast)

Cc1cc(-c2nc3sccn3c2/C=N/N=C(N)N)c(C)s1
26.3 µM: TGI (PC-3 prostate)
29 µM: TGI (MDA-MB-231 breast)
27.8 µM: TGI (DU-145 prostate)
30.4 µM: TGI (NCI-H460 lung)
inactive: GI50 (A498 renal) 18.8 µM | GI50 (BT-549 breast) 18.5 µM | GI50 (DU-145 prostate) 14.2 µM | GI50 (MDA-MB-231 breast) 15.3 µM | GI50 (MDA-MB-435) 13.3 µM | GI50 (NCI-H460 lung) 16.8 µM | GI50 (PC-3 prostate) 13.4 µM | GI50 (SK-MEL-28 melanoma) 16.5 µM
26.1 µM: TGI (MDA-MB-435)
33.9 µM: TGI (A498 renal)
33.3 µM: TGI (BT-549 breast)
31.5 µM: TGI (SK-MEL-28 melanoma)

NC1CCC(Nc2nc(NCc3ccc(-c4ccccc4O)nc3)c3ncn(C4CCCC4)c3n2)CC1 (stereo not drawn)
0.0656 µM: TGI (A498 renal)
0.895 µM: TGI (MDA-MB-231 breast)
1.02 µM: TGI (PC-3 prostate)
0.0713 µM: TGI (SK-MEL-28 melanoma)
0.0356 µM: TGI (RXF 393 renal)
active: GI50 (A498 renal) 0.0233 µM | GI50 (BT-549 breast) 0.0998 µM | GI50 (DU-145 prostate) 0.0344 µM | GI50 (MDA-MB-231 breast) < 0.0105 µM | GI50 (MDA-MB-435) 0.0119 µM | GI50 (NCI-H460 lung) 0.0337 µM | GI50 (PC-3 prostate) 0.0275 µM | GI50 (RXF 393 renal) 0.0144 µM | GI50 (SK-MEL-28 melanoma) 0.0211 µM
1.16 µM: TGI (DU-145 prostate)
1.17 µM: TGI (MDA-MB-435) | TGI (NCI-H460 lung)
0.623 µM: TGI (BT-549 breast)
